Reference: US20250313575A1, “MACROCYCLES AS LRRK2 INHIBITORS, PHARMACEUTICAL COMPOSITIONS, AND USES THEREOF” (Merck Sharp & Dohme LLC, priority 2022, published 2025)

Target: GST-tagged truncated human mutant G2019S LRRK2 (Homo sapiens (Human), UniProt Q5S007, G2019S)
Test: LRRK2 G2019S Km ATP LanthaScreen assay
Format: biochemical
Settings: G2019S LRRK2, 134 μM ATP (Km ATP), LRRKtide substrate
Procedure, shortened: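 TR-FRET assay with GST-tagged truncated human G2019S LRRK2 (1.25 nM), preincubated with compound 15 min, then reacted with fluorescein-LRRKtide and 134 μM ATP (Km) in Tris pH 8.5 buffer, 90 min, ambient temperature. Tb-anti-phospho-LRRKtide detection, 520/495 nm ratio; IC50 by 4-parameter logistic fit, top concentration 9.99 μM in DMSO, 10 points.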

Chain of GST-tagged truncated human mutant G2019S LRRK2 (Q5S007 970-2527 G2019S): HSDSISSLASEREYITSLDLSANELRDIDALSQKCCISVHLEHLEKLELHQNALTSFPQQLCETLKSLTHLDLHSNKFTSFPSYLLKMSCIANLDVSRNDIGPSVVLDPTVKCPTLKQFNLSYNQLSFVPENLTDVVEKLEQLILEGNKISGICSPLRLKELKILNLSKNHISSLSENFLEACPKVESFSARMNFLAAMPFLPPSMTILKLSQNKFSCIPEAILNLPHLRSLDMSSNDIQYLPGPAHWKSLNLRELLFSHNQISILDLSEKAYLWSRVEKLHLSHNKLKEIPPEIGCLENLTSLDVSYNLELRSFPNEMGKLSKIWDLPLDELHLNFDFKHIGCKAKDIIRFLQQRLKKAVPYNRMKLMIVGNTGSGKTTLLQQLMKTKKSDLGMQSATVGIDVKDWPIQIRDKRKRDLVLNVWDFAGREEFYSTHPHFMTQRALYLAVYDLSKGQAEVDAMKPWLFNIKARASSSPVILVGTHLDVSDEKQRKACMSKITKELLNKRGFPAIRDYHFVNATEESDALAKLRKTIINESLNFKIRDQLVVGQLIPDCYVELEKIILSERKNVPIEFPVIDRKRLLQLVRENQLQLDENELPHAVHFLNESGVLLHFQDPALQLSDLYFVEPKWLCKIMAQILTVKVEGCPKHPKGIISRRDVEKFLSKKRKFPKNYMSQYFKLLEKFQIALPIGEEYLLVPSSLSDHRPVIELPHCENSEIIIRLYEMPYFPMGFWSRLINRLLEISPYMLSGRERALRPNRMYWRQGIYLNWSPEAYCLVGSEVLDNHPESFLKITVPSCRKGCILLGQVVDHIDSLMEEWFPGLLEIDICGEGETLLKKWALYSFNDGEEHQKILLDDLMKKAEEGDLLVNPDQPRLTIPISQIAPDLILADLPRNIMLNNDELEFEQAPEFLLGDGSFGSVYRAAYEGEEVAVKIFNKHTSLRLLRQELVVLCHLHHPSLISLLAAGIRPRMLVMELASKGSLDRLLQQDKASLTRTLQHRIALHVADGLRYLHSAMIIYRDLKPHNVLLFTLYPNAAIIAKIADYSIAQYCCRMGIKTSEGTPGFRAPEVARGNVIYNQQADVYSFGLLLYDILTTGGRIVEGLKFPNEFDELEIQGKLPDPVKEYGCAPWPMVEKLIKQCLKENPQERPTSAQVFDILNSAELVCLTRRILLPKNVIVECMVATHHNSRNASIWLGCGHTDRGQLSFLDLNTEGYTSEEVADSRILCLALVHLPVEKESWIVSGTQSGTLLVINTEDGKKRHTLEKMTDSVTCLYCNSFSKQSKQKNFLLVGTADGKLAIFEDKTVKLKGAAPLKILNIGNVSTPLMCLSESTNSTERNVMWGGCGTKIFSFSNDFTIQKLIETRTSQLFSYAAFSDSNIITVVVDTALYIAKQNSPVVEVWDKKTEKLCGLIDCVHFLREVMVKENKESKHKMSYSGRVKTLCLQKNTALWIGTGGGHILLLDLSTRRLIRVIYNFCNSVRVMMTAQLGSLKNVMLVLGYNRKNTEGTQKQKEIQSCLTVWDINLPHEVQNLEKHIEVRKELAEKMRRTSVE

Compound	LRRK2 pIC50
Cn1cc(C2CC2c2nn(C3CCC3)c3c2OC[C@@H]2COC[C@H]2Nc2nc(ncc2C(F)(F)F)N3)cn1 (stereo partly drawn) [Ex-2.69, (10aS,13aS)-3-cyclobutyl-1-((1S,2S)- or (10aS,13aS)-3-cyclobutyl-1-((1R,2R)-2-(1-methyl-1H-pyrazol-4-yl)cyclopropyl)-8-(trifluoromethyl)-3,4,10a,11,13a,14-hexahydro-10H,13H-5,9-(azeno)furo[3,4-k]pyrazolo[4,3-b][1]oxa[4,6,10]triazacyclotridecine]	>10.09
Cc1nn(C2CCC2)c2c1OCCC(C)Nc1nc(ncc1C(F)(F)F)N2 (single isomer, unassigned) [Ex-2.6, (R)- or (S)-1-cyclobutyl-3,7-dimethyl-10-(trifluoromethyl)-1,5,6,7,8,14-hexahydro-9,13-(azeno)pyrazolo[4,3-b][1]oxa[4,6,10]triazacyclotridecine]	9.17
COC(=O)C(C)(C)n1nc(C)c2c1OCC[C@@H](C)Nc1nc(ncc1C(F)(F)F)N2 [Ex-1.5, methyl (R)-2-(3,11-dimethyl-8-(trifluoromethyl)-10,11,12,13-tetrahydro-5,9-(azeno)pyrazolo[3,4-b][1]oxa[4,6,10]triazacyclotridecin-1(4H)-yl)-2-methylpropanoate]	8.73
O[C@@H]1COCC1n1nc(C2CC2)c2c1OC[C@H]1CC[C@@H]1Nc1nc(ncc1C(F)(F)F)N2 (single isomer, unassigned) [Ex-6.3, (3R,4S)-4-((10aR,12aR)- or (3R,4S)-4-((10aS,12aS)- or (3S,4R)-4-((10aR,12aR)- or (3S,4R)-4-((10aR,12aR)-3-cyclopropyl-8-(trifluoromethyl)-10,10a,11,12,12a,13-hexahydro-5,9-(azeno)cyclobuta[k]pyrazolo[3,4-b][1]oxa[4,6,10]triazacyclotridecin-1 (4H)-yl)tetrahydrofuran-3-ol]	7.29
Cc1nn(C2CCC2)c2c1OC[C@@H]1COC[C@H]1Nc1nc(ncc1C(F)(F)F)N2 [Ex-2.28, (3aR,15aR)- or (3aS,15aS)-11-cyclobutyl-13-methyl-6-(trifluoromethyl)-2,3,3a,4,10,11,15,15a-octahydro-5,9-(azeno)furo[3,2-k]pyrazolo[4,3-b][1]oxa[4,6,10]triazacyclotridecine]	9.64
Cc1nn(C)c2c1OCC1CC[C@H]1Nc1nc(ncc1C(F)(F)F)N2 (stereo partly drawn) [Ex-2.12, (10aR,12aS)- or (10aS,12aR)-1,3-dimethyl-8-(trifluoromethyl)-3,4,10,10a,11,12,12a,13-octahydro-5,9-(azeno)cyclobuta[k]pyrazolo[4,3-b][1]oxa[4,6,10]triazacyclotridecine]	7.61
CC1CCOc2c(C(C)(C)C#N)nn(C3CCC3)c2Nc2ncc(C(F)(F)F)c(n2)N1 (single isomer, unassigned) [Ex-2.30, (R)- or (S)-butyl-7-methyl-10-(trifluoromethyl)-1,5,6,7,8,14-hexahydro-9,13-(azeno)pyrazolo[4,3-b][1]oxa[4,6,10]triazacyclotridecin-3-yl)-2-methylpropanenitrile]	10.03
CCn1nc(C)c2c1OCC1(CC1)CNc1nc(ncc1C(F)(F)F)N2 [Ex-1.3, 1′-ethyl-3′-methyl-8′-(trifluoromethyl)-1′,4′,10′,11′-tetrahydro-13′H-spiro[cyclopropane-1,12′-[5,9](azeno)pyrazolo[3,4-b][1]oxa[4,6,10]triazacyclotridecine]]	9.07
Cc1nn(C2CCC2)c2c1OC[C@H]1COC[C@@H]1Nc1nc(ncc1C(F)(F)F)N2 (single isomer, unassigned) [Ex-2.26, (10aS,13aS)- or (10aR,13aR)-3-cyclobutyl-1-methyl-8-(trifluoromethyl)-3,4,10a,11,13a, 14-hexahydro-10H,13H-5,9-(azeno)furo[3,4-k]pyrazolo[4,3-b][1]oxa[4,6,10]triazacyclotridecine]	6.77
Cc1nn(C(C)(C)CO)c2c1Nc1ncc(C(F)(F)F)c(n1)N[C@H](C)CCO2 [Ex-7.3, (R)-2-(3,11-dimethyl-8-(trifluoromethyl)-10,11,12,13-tetrahydro-5,9-(azeno)pyrazolo[3,4-b][1]oxa[4,6,10]triazacyclotridecin-1(4H)-yl)-2-methylpropan-1-ol]	>10.09
C[C@@H]1CCOc2cn(C)nc2Nc2ncc(Cl)c(n2)N1 [Ex-18.1, (R)-10-chloro-2,7-dimethyl-2,5,6,7,8,14-hexahydro-9,13-(azeno)pyrazolo[4,3-b][1]oxa[4,6,10]triazacyclotridecine]	7.94
Cn1nc(C(F)(F)F)c2c1Nc1cc(c(Cl)cn1)N[C@@H]1COC[C@H]1CO2 [Ex-13.9, (10aS,13aS)-8-chloro-3-methyl-1-(trifluoromethyl)-3,4,10a,11,13a,14-hexahydro-10H,13H-5,9-(metheno)furo[3,4-k]pyrazolo[4,3-b][1]oxa[4,6,10]triazacyclotridecine]	8.49
Cn1nc(C2CC2)c2c1OCC1COCC1Nc1nc(ncc1C(F)(F)F)N2 [Ex-1.7, (10aS,13aS)- or (10aR,13aR)-3-cyclopropyl-1-methyl-8-(trifluoromethyl)-1,4,10a,11,13a,14-hexahydro-10H,13H-5,9-(azeno)furo[3,4-k]pyrazolo[3,4-b][1]oxa[4,6,10]triazacyclotridecine]	>10.09
CC(C)(C#N)c1nn(C2CCC2)c2c1OC[C@@H]1COC[C@H]1Nc1nc(ncc1C(F)(F)F)N2 [Ex-2.48, 2-((10aS,13aS)-3-cyclobutyl-8-(trifluoromethyl)-3,4,10a,11,13a,14-hexahydro-10H,13H-5,9-(azeno)furo[3,4-k]pyrazolo[4,3-b][1]oxa[4,6,10]triazacyclotridecin-1-yl)-2-methylpropanenitrile]	>10.09
Cn1cc(C2CC2c2nn(C3CCC3)c3c2OC[C@@H]2COC[C@H]2Nc2nc(ncc2C(F)(F)F)N3)cn1 (stereo partly drawn) [Ex-2.70, (10aS,13aS)-3-cyclobutyl-1-((1S,2S)- or (10aS,13aS)-3-cyclobutyl-1-((IR,2R)-2-(1-methyl-1H-pyrazol-4-yl)cyclopropyl)-8-(trifluoromethyl)-3,4,10a,11,13a,14-hexahydro-10H,13H-5,9-(azeno)furo[3,4-k]pyrazolo[4,3-b][1]oxa[4,6,10]triazacyclotridecine]	9.35
CC(C)n1nc(C(C)(C)C#N)c2c1Nc1ncc(C(F)(F)F)c(n1)N[C@@H]1COC[C@H]1CO2 [Ex-2.43, 2-((10aS,13aS)-3-isopropyl-8-(trifluoromethyl)-3,4,10a,11,13a,14-hexahydro-10H,13H-5,9-(azeno)furo[3,4-k]pyrazolo[4,3-b][1]oxa[4,6,10]triazacyclotridecin-1-yl)-2-methylpropanenitrile]	>10.09
Cc1nn(C2CCC2)c2c1OC[C@@H]1COC[C@H]1Nc1nc(ncc1F)N2 [Ex-2.66, (10aS,13aS)-3-cyclobutyl-8-fluoro-1-methyl-3,4,10a,11,13a,14-hexahydro-10H,13H-5,9-(azeno)furo[3,4-k]pyrazolo[4,3-b][1]oxa[4,6,10]triazacyclotridecine]	8.43
Cc1nn(C(C)C)c2c1OCCC(C)Nc1nc(ncc1C(F)(F)F)N2 (single isomer, unassigned) [Ex-2.9, (R)- or (S)-1-isopropyl-3,7-dimethyl-10-(trifluoromethyl)-1,5,6,7,8,14-hexahydro-9,13-(azeno)pyrazolo[4,3-b][1]oxa[4,6,10]triazacyclotridecine]	6.31
CC1CCOc2c(C3CC3)nn(C)c2Nc2ncc(C(F)(F)F)c(n2)N1 (single isomer, unassigned) [Ex-2.18, (R)- or (S)-3-cyclopropyl-1,7-dimethyl-10-(trifluoromethyl)-1,5,6,7,8,14-hexahydro-9,13-(azeno)pyrazolo[4,3-b][1]oxa[4,6,10]triazacyclotridecine]	6.65
(10aR,12aR)-8-chloro-3-methyl-1- (trifluoromethyl)-3,4,10,10a,11,12,12a,13- octahydro-5,9- (azeno)cyclobuta[k]pyrazolo[4,3- b][1]oxa[4,6,10]triazacyclotridecine [Ex-2.76]	9.47
FC(F)(F)c1cnc2nc1NC1CCC1COc1c(C3CCOC3)nn(C3CCC3)c1N2 [Ex-2.64, (10aR,12aR)-3-cyclobutyl-1-((R)-(10aR,12aR)-3-cyclobutyl-1-((S)-(10aS,12aS)-3-cyclobutyl-1-((R)-(10aS,12aS)-3-cyclobutyl-1-((S)-tetrahydrofuran-3-yl)-8-(trifluoromethyl)-3,4,10,10a,11,12,12a,13-octahydro-5,9-(azeno)cyclobuta[k]pyrazolo[4,3-b][1]oxa|4,6,10]triazacyclotridecine]	>10.09
Cc1nn(C2CC2)c2c1OC[C@@H]1CC[C@H]1Oc1nc(ncc1C(F)(F)F)N2 [Ex-14.1, (10aR,13aS)- or (10aS,13aR)-3-Cyclopropyl-1-methyl-8-(trifluoromethyl)-3,4,10a,11,12a,13-hexahydro-12H-5,9-(azeno)cyclobuta[k]pyrazolo[4,3-b][1,10]dioxa[4,6]diazacyclotridecine]	8.78

Same assay, conditions: G2019S LRRK2, 134 μM ATP (Km ATP), LRRKtide substrate; read-out: LRRK2 pIC50 (converted)

Compound	IC50 [nM]
COC1CC(n2nc(C)c3c2Nc2ncc(C(F)(F)F)c(n2)NC2COCC2CO3)C1 (single isomer, unassigned) [Ex-2.32, (10aS,13aS)- or (10aR,13aR)-3-((1R,3S)-3-methoxycyclobutyl)-1-methyl-8-(trifluoromethyl)-3,4,10a,11,13a,14-hexahydro-10H,13H-5,9-(azeno)furo[3,4-k]pyrazolo[4,3-b][1]oxa[4,6,10]triazacyclotridecine]	0.0912
Cc1nn(C2CCC2)c2c1OCC[C@H]1COCCN1c1nc(ncc1C(F)(F)F)N2 (single isomer, unassigned) [Ex-21.4, (R) or (S)-3-cyclobutyl-1-methyl-8-(trifluoromethyl)-3,4,11,12,14,14a,15,16-octahydro-5,9-(azeno)[1,4]oxazino[4,3-j]pyrazolo[4,3-b][1]oxa[4,6,10]triazacyclotridecine]	2450
